Test results reported in paper PMC8286840, “Identifying SARS-CoV-2 antiviral compounds by screening for small molecule inhibitors of Nsp3 papain-like protease” (Biochemical Journal, 2021).
Structures can show the parent of a compound that is named as a salt. Where two headings read alike, the source gives them in different places.

What was measured:
[1] = target: T1, SARS-CoV-2 PLpro (nsp3 1564–1878) (Severe acute respiratory syndrome coronavirus 2, UniProt P0DTD1); experiment: biochemical; set-up: FRET-quenched peptide (Pro3) cleavage by PLpro, 10 min pre-incubation, slope over 20 min, normalised to no-compound control; conditions: low concentration screen, read-out: % of control remaining
[2] = target: T1, SARS-CoV-2 PLpro (nsp3 1564–1878); experiment: biochemical; set-up: FRET-quenched peptide (Pro3) cleavage by PLpro, 10 min pre-incubation, slope over 20 min, normalised to no-compound control; conditions: high concentration screen, read-out: % of control remaining

O=c1[nH]c(=O)n([C@H]2C[C@H](O)[C@@H](CO)O2)cc1/C=C/Br [(E)-5-(2-Bromovinyl)-2'-deoxyuridine]
remaining activity at 1.25 µM ([1]; Well no.=83): 94.9%
remaining activity at 3.75 µM ([2]; Well no.=83): 94.4%

Clc1ccc(N/N=C(\c2ccccc2)c2ccccn2)nc1 [(E)-5-chloro-2-(2-(phenyl(pyridin-2-yl)methylene)hydrazinyl)pyridine]
remaining activity at 1.25 µM ([1]; Well no.=5428): 91.3%
remaining activity at 3.75 µM ([2]; Well no.=5428): 96.4%

COc1cc(/C=C/C(=O)NCCn2c(C)cc3ccccc32)cc(OC)c1OC [(E)-N-(2-(2-methyl-1H-indol-1-yl)ethyl)-3-(3,4,5-trimethoxyphenyl)acrylamide]
remaining activity at 1.25 µM ([1]; Well no.=5914): 103%
remaining activity at 3.75 µM ([2]; Well no.=5914): 99.4%

O=C(O)[C@H]1Cc2ccccc2CN1 [(R)-1,2,3,4-Tetrahydro-3-isoquinolinecarboxylic acid]
remaining activity at 1.25 µM ([1]; Well no.=8608): 102%
remaining activity at 3.75 µM ([2]; Well no.=8608): 101%

CC(C)C[C@@H](C(=O)O)c1cc(-c2ccc(C(F)(F)F)cc2)cc(-c2ccc(C(F)(F)F)cc2)c1 [(R)-2-(4,4''-bis(trifluoromethyl)-[1,1':3',1''-terphenyl]-5'-yl)-4-methylpentanoic acid]
remaining activity at 1.25 µM ([1]; Well no.=5455): 99.6%
remaining activity at 3.75 µM ([2]; Well no.=5455): 106%

COc1ccc(CC[C@H]2CCC[C@@H](CCc3ccc(OC)cc3)N2C[C@@H](O)CO)cc1 [(R)-3-((2R,6S)-2,6-bis(4-methoxyphenethyl)piperidin-1-yl)propane-1,2-diol hydrochloride]
remaining activity at 1.25 µM ([1]; Well no.=5614): 101%
remaining activity at 3.75 µM ([2]; Well no.=5614): 102%

C[C@@H](O)CC(=O)O [(R)-3-Hydroxybutanoic acid]
remaining activity at 1.25 µM ([1]; Well no.=7123): 106%
remaining activity at 3.75 µM ([2]; Well no.=7123): 105%

CC(C)N(CC[C@H](c1ccccc1)c1cc(CO)ccc1O)C(C)C [(R)-5-Hydroxymethyl Tolterodine]
remaining activity at 1.25 µM ([1]; Well no.=7038): 107%
remaining activity at 3.75 µM ([2]; Well no.=7038): 107%

[2H]C([2H])([2H])NC[C@H](O)c1cccc(O)c1 [(R)-(-)-Phenylephrine (hydrochloride)]
remaining activity at 1.25 µM ([1]; Well no.=6707): 98.6%
remaining activity at 3.75 µM ([2]; Well no.=6707): 95.4%

NCc1c[nH]c(=S)n1[C@@H]1CCc2c(F)cc(F)cc2C1 [(R)-Nepicastat HCl]
remaining activity at 1.25 µM ([1]; Well no.=8886): 91.4%
remaining activity at 3.75 µM ([2]; Well no.=8886): 92%

N[C@H](CO)C(=O)O [(R)-Serine]
remaining activity at 1.25 µM ([1]; Well no.=7739): 99.9%
remaining activity at 3.75 µM ([2]; Well no.=7739): 100%

O[C@H](c1cc(C(F)(F)F)nc2c(C(F)(F)F)cccc12)[C@@H]1CCCCN1 [(R)-[2,8-bis(trifluoromethyl)-4-quinolinyl][(2S)-2-piperidinyl]methanol hydrochloride]
remaining activity at 1.25 µM ([1]; Well no.=5875): 105%
remaining activity at 3.75 µM ([2]; Well no.=5875): 113%

NC[C@H](CC(=O)O)c1ccc(Cl)cc1 [(R)-baclofen]
remaining activity at 1.25 µM ([1]; Well no.=5315): 96.9%
remaining activity at 3.75 µM ([2]; Well no.=5315): 93.5%

O=C(O)[C@H]1CCCN1 [(R)-pyrrolidine-2-carboxylic acid]
remaining activity at 1.25 µM ([1]; Well no.=8700): 106%
remaining activity at 3.75 µM ([2]; Well no.=8700): 101%

O=C(O)[C@@H](O)Cc1ccccc1 [(S)-2-Hydroxy-3-phenylpropanoic acid]
remaining activity at 1.25 µM ([1]; Well no.=7173): 96.3%
remaining activity at 3.75 µM ([2]; Well no.=7173): 88.8%

O=C(O)C[C@H](O)C(=O)O [(S)-2-Hydroxysuccinic acid]
remaining activity at 1.25 µM ([1]; Well no.=6825): 105%
remaining activity at 3.75 µM ([2]; Well no.=6825): 100%

N[C@H](C(=O)O)c1cc(O)cc(O)c1 [(S)-3,5-Dihydroxyphenylglycine]
remaining activity at 1.25 µM ([1]; Well no.=401): 102%
remaining activity at 3.75 µM ([2]; Well no.=401): 98.7%

C[C@H](NC(=O)CC=C1NC(=O)c2ccccc2N1)c1ccccc1 [(S)-3-(4-oxo-3,4-dihydroquinazolin-2(1H)-ylidene)-N-(1-phenylethyl)propanamide]
remaining activity at 1.25 µM ([1]; Well no.=6083): 95.2%
remaining activity at 3.75 µM ([2]; Well no.=6083): 95.2%

C[C@H](O)CC(=O)O [(S)-3-Hydroxybutanoic acid]
remaining activity at 1.25 µM ([1]; Well no.=7301): 109%
remaining activity at 3.75 µM ([2]; Well no.=7301): 105%

Cc1ncc(Cl)cc1NCc1ccc(C(=O)N[C@@H](CC2CCCC2)C(=O)NC2CC2)s1 [(S)-5-(((5-chloro-2-methylpyridin-3-yl)amino)methyl)-N-(3-cyclopentyl-1-(cyclopropylamino)-1-oxopropan-2-yl)thiophene-2-carboxamide]
remaining activity at 1.25 µM ([1]; Well no.=5550): 94.4%
remaining activity at 3.75 µM ([2]; Well no.=5550): 99.3%

O=C(O)c1ccc(NC(=O)[C@H](CC2CCCC2)n2cnc(C(F)(F)F)c2)nc1 [(S)-6-(3-cyclopentyl-2-(4-(trifluoromethyl)-1H-imidazol-1-yl)propanamido)nicotinic acid]
remaining activity at 1.25 µM ([1]; Well no.=6066): 83%
remaining activity at 3.75 µM ([2]; Well no.=6066): 86.8%

CC[C@@]1(O)C(=O)OCc2c1cc1n(c2=O)Cc2cc3ccccc3nc2-1 [(S)-(+)-Camptothecin]
remaining activity at 1.25 µM ([1]; Well no.=483): 100%
remaining activity at 3.75 µM ([2]; Well no.=483): 90.7%

CCN1CCC[C@H]1CNC(=O)c1cc(S(N)(=O)=O)ccc1OC [(S)-(-)-Sulpiride]
remaining activity at 1.25 µM ([1]; Well no.=1636): 98.3%
remaining activity at 3.75 µM ([2]; Well no.=1636): 103%

CCCNC[C@H](O)COc1ccccc1C(=O)CCc1ccccc1 [(S)-(-)-propafenone hydrochloride]
remaining activity at 1.25 µM ([1]; Well no.=1451): 96.2%
remaining activity at 3.75 µM ([2]; Well no.=1451): 93.6%

OC[C@H]1O[C@@H](n2cnc3c(N[C@@H]4C[C@H]5CC[C@H]4C5)ncnc32)[C@H](O)[C@@H]1O [(S)-ENBA]
remaining activity at 1.25 µM ([1]; Well no.=465): 102%
remaining activity at 3.75 µM ([2]; Well no.=465): 105%

N[C@@H](CCC(=O)O)C(=O)O [(S)-Glutamic acid]
remaining activity at 1.25 µM ([1]; Well no.=6165): 98.9%
remaining activity at 3.75 µM ([2]; Well no.=6165): 96.9%

CC(C)C[C@H](O)C(=O)O [(S)-Leucic acid]
remaining activity at 1.25 µM ([1]; Well no.=6633): 108%
remaining activity at 3.75 µM ([2]; Well no.=6633): 109%

Cc1[nH]c2ccccc2c1CC(=O)N[C@@H](Cc1ccccc1)C(=O)N(C)c1ccccc1 [(S)-N-methyl-2-(2-(2-methyl-1H-indol-3-yl)acetamido)-N,3-diphenylpropanamide]
remaining activity at 1.25 µM ([1]; Well no.=5917): 106%
remaining activity at 3.75 µM ([2]; Well no.=5917): 103%

CC(C)(C)NC[C@H](O)COc1nsnc1N1CCOCC1 [(S)-Timolol (Maleate)]
remaining activity at 1.25 µM ([1]; Well no.=7667): 92.8%
remaining activity at 3.75 µM ([2]; Well no.=7667): 94.8%

CC(C)(C)NC[C@H](O)COc1nsnc1N1CCOCC1 [(S)-Timolol maleate]
remaining activity at 1.25 µM ([1]; Well no.=1739): 98.8%
remaining activity at 3.75 µM ([2]; Well no.=1739): 97.3%

OC[C@H]1O[C@@H](n2cnc3c(NCCc4c[nH]c5ccccc45)ncnc32)[C@H](O)[C@@H]1O [A2AR-agonist-1]
remaining activity at 1.25 µM ([1]; Well no.=8653): 105%
remaining activity at 3.75 µM ([2]; Well no.=8653): 105%

NC[C@@H]1O[C@H](C23CC4CC(CC(C4)C2)C3)Cc2c1ccc(O)c2O [A-77636 hydrochloride]
remaining activity at 1.25 µM ([1]; Well no.=212): 102%
remaining activity at 3.75 µM ([2]; Well no.=212): 99.3%

Cc1[nH]nc2ccc(-c3cncc(OC[C@@H](N)Cc4ccccc4)c3)cc12 [A-674563]
remaining activity at 1.25 µM ([1]; Well no.=2991): 97%
remaining activity at 3.75 µM ([2]; Well no.=2991): 99.1%
